Laboratory results from paper PMC5418359, “Topical Ophthalmic Formulation of Trichostatin A and SurR9-C84A for Quick Recovery Post-alkali Burn of Corneal Haze” (Frontiers in Pharmacology, 2017).

Key:
[1] = system: expression of survivin, TGF-beta-1, alpha-SMA and collagen IV in alkali burnt cornea; test: Ex vivo RT-PCR dose ranging in alkali burnt rat eyes; conditions: 1 M NaOH 1 min, treatment 40 min
Description: This procedure was carried out using a previously published protocol ([Lin et al., 2016]). Rat eyes were harvested from humanely killed rats and washed with HBSS. Rat eyes were further incubated with 1 M NaOH for 1 min and then treated with TSA ([…]), SurR9-C84A (0.5, 1.2, and 2.5 mg/kg), pSur/As-Sur ([…]) and empty plasmid (200, 400, and 800 μg/kg) for 40 min. Untreated eyes were maintained as controls. After treatment period, eyes were washed with PBS and total RNA was extracted using the TRIzol® reagent (cat# 15596-026, Thermo Fisher Scientific, Waltham, MA, USA), and complementary DNA (cDNA) was synthesized from RNA using the RevertAid H Minus First Strand cDNA Synthesis Kit (cat# K1631, Thermo Fisher Scientific). Expression of survivin, TGF-beta-1, alpha-SMA and collagen IV was determined by polymerase chain reaction (PCR).

cornea = test: Mean opacity and mean permeability measurements, rat alkali burn model; type: in vivo; conditions: 1 M NaOH 1 min, topical treatment 40 min
Description: The mean in vivo scores was determined using the mean opacity measurements. The rat eyes were excised carefully and carried to the laboratory in HBSS supplemented with penicillin/streptomycin. The measurement of mean opacity was carried out using an opacitometer which measures the transmission of light through the center of each mounted cornea. The mean permeability score was determined by adding a fluorescent (rhodamine solution) on the anterior side of the holder and the corneas were incubated in a horizontal position for 90 min at 32°C. The medium in the posterior chamber was removed and added to 96 well plates and the OD at 490 nm was read. The readings obtained at OD490 were used to determine the permeability of each treatment with respect to the change in the untreated corneas.

[2] = system: conjunctival layer and corneal matrix; test: H&E histology of corneal segments, rat alkali burn model; type: in vivo; conditions: 1 M NaOH 1 min, topical treatment 40 min
Description: After the completion of the study, all tissues that required to be examined (eyes, brain, kidneys, liver, spleen, heart and lungs) were isolated. The cornea was carefully separated from the eye without damaging it and washed using phosphate buffer saline (PBS). Tissues were fixed using 4% paraformaldehyde (PF) overnight at 4°C and then washed in PBS. The tissue segments were dehydrated in graded ethanol, embedded in paraffin and 5–7 μm thick sections were cut using a microtome. Sections were collected on poly-lysine coated slides using the Leica cryostat and were fixed immediately in ice-cold acetone. All the sections were stained for haematoxylin–eosin (H&E) for critical analysis.

corneal lysate = test: Multianalyte ELISA of inflammatory cytokines in corneal lysate; type: in vivo, rat
Description: The cytokine profiling was performed using the Rat Inflammatory Cytokines & Chemokines Multi-Analyte ELISArray Kit (QIAGEN, USA). Briefly, serial dilutions of the Antigen Standard and the experimental samples were prepared. 50 μL of Assay Buffer was added to each well of the 8-well ELISA strips. Fifty microliters samples and/or standards were added to the appropriate wells of the ELISA strips and incubated for 2 h at room temperature. The ELISA strips were further washed using 350 μL 1 × Washing Buffer thrice. Hundred microliters of Detection Antibody solution was added to the ELISA strips and incubated for 1 h at room temperature. ELISA wells were washed as mentioned above. Hundred microliters of the Avidin–HRP solution was added to all wells and incubated for 30 min at room temperature. ELISA wells were washed as mentioned above. Hundred microliters of Development Solution was added to each well and incubated for 15 min at room temperature in the dark. Hundred microliters of Stop Solution was added to each well. The color changed from blue to yellow. The absorbance at 450 nm was measured within 30 min of stopping the reaction. The estimation of pg/mL of cytokines was performed using the values obtained from antigen standards and a graph was plotted for the cytokine expression with the effect of treatments.

[3] = Ocular and systemic pharmacokinetics of TSA after topical application; conditions: for Concentration of TSA in Aqueous humor / Concentration of TSA in Conjunctiva / Concentration of TSA in Cornea / Concentration of TSA in Plasma / Concentration of TSA in Tear fluid: mean ±SD; for AUC0-8 / AUC0-∞ / Cmax / Tmax / t1/2: rat, topical application
Description: Pharmacokinetic analysis was done using the HPLC System for the levels of TSA in eye tissue and plasma samples was measured using PK methods. PK estimated using standard measurements for maximum concentration (Cmax), time to reach Cmax (Tmax), area under the concentration–time curve (AUC), elimination rate constant (K), elimination half-life (t1/2), apparent clearance (CL/F), apparent volume of distribution (Vd/F).

Blood analysis = type: in vivo; design: HCT / MCH / WBC / RBC / HGB / MCHC: unit not given here; conditions: rat blood
Description: The analysis of blood samples was performed directly using the ABX Micros ES 60 (Horiba Medicals). The parameters analyzed included the number of red blood cells (RBC’s), white blood cells (WBC’s), platelets and hemoglobin content. Briefly, 20 μL of the blood sample was acquired in the instrument and the readings were recorded.

rat corneal tissues = conditions: confocal microscopy
[4] = system: rat eyes post-alkali burn
[5] = 2 min after topical application in eye
[6] = 10 min after topical application in eye
[7] = 30 min after topical application in eye

CC(/C=C/C(=O)NO)=C\[C@@H](C)C(=O)c1ccc(N(C)C)cc1 [TSA, trichostatin A]
most effective dosage in inhibiting expression of survivin, alpha-SMA, TGF-beta-1 and collagen IV [1]: 0.02 mg/kg
Mean in vitro score (cornea): 0.20 ± 0.5^∗
Mean opacity measurement (cornea): 0.5 ± 0.2 ^∗
Predicted irritation potential (cornea): No irritation
corneal tissue integrity (conjunctival layer, corneal matrix), H&E [2]: recovery of the conjunctival layer
GMCSF expression, ELISA (corneal lysate): downregulated effectively
IFN-gamma expression, ELISA (corneal lysate): significant downregulation
IL-1 beta expression, ELISA (corneal lysate): downregulation
IL-2 expression, ELISA (corneal lysate): significantly increased
IL-4 expression, ELISA (corneal lysate): increase
IL-6 expression, ELISA (corneal lysate): downregulated effectively
IL-12 expression, ELISA (corneal lysate): further downregulation
IL-13 expression, ELISA (corneal lysate): downregulated effectively
Rantes expression, ELISA (corneal lysate): significantly downregulated
TNF-alpha expression, ELISA (corneal lysate): downregulated effectively
Concentration of TSA in Aqueous humor [3, 5]: 119.43 ± 37.92 ng/mL
Concentration of TSA in Conjunctiva [3, 5]: 267.88 ± 75.51 µg/g
Concentration of TSA in Cornea [3, 5]: 216.83 ± 78.05 µg/g
Concentration of TSA in Plasma [3, 5]: 103.61 ± 28.37 ng/mL
Concentration of TSA in Tear fluid [3, 5]: 333.42 ± 69.72 µg/g
Concentration of TSA in Aqueous humor [3, 6]: 112.94 ± 15.10 ng/mL
Concentration of TSA in Conjunctiva [3, 6]: 261.29 ± 66.47 µg/g
Concentration of TSA in Cornea [3, 6]: 291.02 ± 109.25 µg/g
Concentration of TSA in Plasma [3, 6]: 263.87 ± 80.96 ng/mL
Concentration of TSA in Tear fluid [3, 6]: 208.93 ± 30.82 µg/g
Concentration of TSA in Conjunctiva [3, 7]: 178.23 ± 35.22 µg/g
Concentration of TSA in Cornea [3, 7]: 762.86 ± 385.68 µg/g
Concentration of TSA in Plasma [3, 7]: 109.16 ± 33.00 ng/mL
Concentration of TSA in Tear fluid [3, 7]: 154.98 ± 73.25 µg/g
AUC0-8 ([3]; Aqueous humor): 7568 µg·h/g
AUC0-∞ ([3]; Aqueous humor): 7689 µg·h/g
Cmax ([3]; Aqueous humor): 11,046 ± 2734 μg/g
Tmax ([3]; Aqueous humor): 20 min
t1/2 ([3]; Aqueous humor): 90 min
AUC0-8 ([3]; Conjunctiva): 53.4 µg·h/g
Cmax ([3]; Conjunctiva): 26.26 ± 7.19 µg/g
Tmax ([3]; Conjunctiva): 5 min
t1/2 ([3]; Conjunctiva): 252 min
AUC0-8 ([3]; Cornea): 45.5 µg·h/g
AUC0-∞ ([3]; Cornea): 55.5 µg·h/g
Cmax ([3]; Cornea): 44.67 ± 12.91 µg/g
Tmax ([3]; Cornea): 5 min
t1/2 ([3]; Cornea): 210 min
AUC0-8 ([3]; Plasma): 65.5 µg·h/g
AUC0-∞ ([3]; Plasma): 68.4 µg·h/g
Cmax ([3]; Plasma): 160.3 ± 61.0 µg/g
Tmax ([3]; Plasma): 10 min
t1/2 ([3]; Plasma): 90 min
AUC0-8 ([3]; Tear fluid): 678.5 µg·h/g
AUC0-∞ ([3]; Tear fluid): 768.5 µg·h/g
Cmax ([3]; Tear fluid): 2,987 ± 1814 μg/g
Tmax ([3]; Tear fluid): 5 min
t1/2 ([3]; Tear fluid): 138 min
HCT (Blood analysis): increased the HCT count to normal range
HGB (Blood analysis): 17.61 ± 1.41
MCH (Blood analysis): reduced to normal range
MCHC (Blood analysis): 38.15 ± 1.63
PLT (Blood analysis): 256.33 ± 117
RBC (Blood analysis): 8.15 ± 0.61
WBC (Blood analysis): 5.48 ± 2.06
MCV (Blood analysis; in fL (unit assumed)): 56.66 ± 1.86
HCT (Blood analysis; listed as NaOH–TSA): 46.2 ± 4.14
MCH (Blood analysis; listed as NaOH–TSA): 21.63 ± 1.01
alpha-SMA expression, immunofluorescence (rat corneal tissues): failed to downregulate it effectively
collagen type IV expression, immunofluorescence (rat corneal tissues): most effective in increasing
enhancement of Fibronectin-1 expression, western blot (rat corneal lysates; post-NaOH insult): 1.97 fold
increase in TGF-beta-1 expression, western blot (rat corneal lysates; post-NaOH insult): 1.45 fold
decrease/downregulation of collagen type IV, western blot (rat corneal lysates; rat, in vivo, iv): 2.8 fold
Collagen type IV gene expression, qRT-PCR [4]: efficiently downregulated
Fibronectin-1 gene expression, qRT-PCR [4]: significantly enhanced
IL-1 beta gene expression, qRT-PCR [4]: increase
IL-6 gene expression, qRT-PCR [4]: significantly lowered
MMP-2 gene expression, qRT-PCR [4]: downregulating
TGF-beta-1 gene expression, qRT-PCR [4]: further increase
TNF-alpha gene expression, qRT-PCR [4]: significantly lowered
alpha-SMA gene expression, qRT-PCR [4]: significant increase
alpha-integrin 5 gene expression, qRT-PCR [4]: significant increase
